Measured values: US12474327B2, “Metabolic profiling for the diagnosis of a subset of idiopathic autism spectrum disorder patients, ADS Phenotype 1” (STALICLA SA, priority 2018, dated 2025)

Legend:
[1] = test system: ASD Phenotype 1 lymphoblastoid cell lines (LCLs); test: Energy production capacity (NADH, tetrazolium colorimetric assay, Biolog Phenotype Mammalian MicroArrays); format: cell-based, human
Experimental: (§1) The data reported in the present patent were generated from lymphoblastoid cell lines (LCLs) generated from lymphocytes from peripheral blood. Tubes containing anticoagulant citrate dextrose (ACD) were used to collect blood samples via venipuncture, in order to ensure that the blood cells remained metabolically active. The tubes were kept at room temperature and processed within 24 hours.
(§2) Cell lines were obtained by immortalization of lymphocytes from blood samples using Epstein-Barr virus. The lymphoblastoid cell lines were harvested in Sigma RPMI-1640 with 75 mL fetal bovine serum from Atlanta Biological (Lawrenceville, GA, USA) and 5 mL L-Glutamine and 5 mL antibiotic/antimycotic from Sigma-Aldrich (St. Louis, MO, USA).
(§3) Energy production of cells was measured using commercially available Phenotype Mammalian MicroArrays (PM-Ms, Biolog, Hayward, CA, USA).
(§4) The compound in each well was designed to be used by the cells, either as the sole energy source or as the metabolic effector influencing the utilization of an energy source (D-glucose) added in the cell suspension. The production of NADH per well was monitored using a colorimetric redox dye chemistry (Bochner et al. Assay of the multiple energy-producing pathways of mammalian cells. PLoS One 2011, 6(3):e18147). Before plating, cell viability and number were assessed utilizing a BioRad cell counter and a trypan blue dye.
(§5) The concentration of live cells required for plating was 4×10^5 cells/mL, corresponding to 20,000 cells per well in a volume of 50 μL. Only cell lines with viability of 55% or above were utilized for the experiments and, in order to minimize artifacts and biases due to prolonged cell culturing of transformed cells, LCLs were not been utilized if they had reached 15 passages. Cells were incubated for 48 h at 37° C. in 5% CO2, using the modified Biolog IF-M1 medium.
(§6) The Biolog IF-M1 medium was modified for plates PM-M1 by adding the following to 100 mL of Biolog IF-M1: 1.1 mL of 100× penicillin/streptomycin solution, 0.16 mL of 200 mM glutamine (final concentration 0.3 mM), and 5.3 mL of Fetal Bovine Serum (FBS, final concentration 5%). For plates PM-M6, 5.5 mM α-D-glucose was added instead of FBS.
(§7) After this first incubation, Biolog Redox Dye Mix MB was added (10 μL/well) and the plates were incubated under the same conditions for an additional 24 hours. As the cells metabolized the energy source, tetrazolium dye in the media was reduced, producing a purple color according to the amount of NADH generated.
(§8) For the last 24 hours of the experiment, plates were incubated in the Omnilog system, which collects optical density readings every 15 minutes, generating 96 data-points for each well. The system also elaborated the kinetic curve for the metabolic reaction in each well and extrapolated parameters such as slope, highest point, endpoint, area under the curve (AUC), and lag. The system performed parametric analysis by comparing kinetic curves of cases versus controls, both as individual sample or as cohorts.
(§9) At the end of the 24-hour incubation, plates were analyzed utilizing a microplate reader with readings at 590 and 750 nm. The first value (A590) indicated the highest absorbance peak of the redox dye and the second value (A750) gave a measure of the background noise. The relative absorbance (A590-750) was calculated per well.
(§10) Metabolic profiles of the same cell lines were then assessed after stimulation of the Nrf2 signaling pathway aiming to reproduce in control and Non-Ph1 cells the activation of the hub that occurs constitutively in ASD Ph1. In order to achieve the stimulation of the Nrf2 pathway, the cells were exposed to sulforaphane.

[2] = test system: ASD non-Phenotype 1 lymphoblastoid cell lines (LCLs); test: as above; format: cell-based, human; conditions: for energy production capacity: ASD non-Phenotype 1 LCLs, in presence of D-Glucose
Experimental: as §1, §2, §3, §4, §5, §6, §7, §8, §9, §10

[3] = test system: control lymphoblastoid cell lines (LCLs); test: as above; format: cell-based, human; conditions: for energy production capacity: in presence of D-Glucose
Experimental: as §1, §2, §3, §4, §5, §6, §7, §8, §9, §10

core symptoms of ASD = conditions: ASD patients treated in Singh et al.; cited from earlier work
ASD Phenotype 1 patients = conditions: short oral treatment, described in EP 17200185.1; cited from earlier work
[4] = Singh K et al., PNAS 2014; cited from earlier work

Structure (SMILES)	energy production capacity ([1]; Phenotype 1 cells, in the presence of D-Glucose, increasing concentrations)	energy production capacity after pretreatment with sulforaphane (Nrf2 activation) ([2]; ASD non-Ph1 LCLs, in presence of glucose)	energy production capacity [2]	energy production capacity ([3]; control LCLs)	energy production capacity after pretreatment with sulforaphane (Nrf2 activation) ([3]; control LCLs, in presence of glucose, addition of dibutyryl cAMP)	effect on the dibutyryl cAMP-induced increase of energy production capacity ([1]; ASD Ph1 cells, D-Glucose, treated with sulforaphane)	effect on energy production capacity ([1]; ASD Phenotype 1 cell lines, various carbon sources of energy (FIG. 1, FIG. 2: D-Glucose, maltose), exposed to sulforaphane)	metabolic profile (PCA of energy production capacity) ([2]; ASD non-Phenotype 1 cells exposed to sulforaphane, various carbon sources of energy)	metabolic profile (PCA of energy production capacity) ([3]; control cells exposed to sulforaphane, various carbon sources of energy)	core symptoms of ASD (as measured by the ADOS 2) (core symptoms of ASD)	behavioral response (ADI-r SI, ADI-r C or ADI-r RI) (ASD Phenotype 1 patients)	tolerability of administration to humans [4]	toxicity [4]
CCCC(=O)Nc1ncnc2c1ncn2[C@@H]1O[C@@H]2COP(=O)(O)O[C@H]2[C@H]1OC(=O)CCC [dibutyryl cAMP, dibutyril-cyclic adenosine monophosphate]	increased	restituted	no effect	no effect	restituted	–	–	–	–	–	–	–	–
C[S@@+]([O-])CCCCN=C=S [sulforaphane, 1-isothiocyanato-4R-(methylsulfinyl)butane]	–	–	produced a decrease	produced a decrease	–	did not modify the response to dibutyryl cAMP	lack of effect	comparable to Ph1 cells at baseline	comparable to Ph1 cells at baseline	significant improvements	negative behavioral response	well tolerated	low toxicity
